What was measured:
patients = conditions: three or four suppositories of 1 mg at regular intervals; various studies; cited from earlier work
Swiss male mice = assay: Motor activity in mice (rota-rod); conditions: 5 mg/kg, i.p. (table); positive control
platelets = conditions: background statement; cited from earlier work

Compound: CCCCC(C)(C)[C@H](O)/C=C/[C@H]1[C@H](O)CC(=O)[C@@H]1CCCC/C=C/C(=O)OC (relative stereo) [gemeprost, 16,16-dimethyl-trans-Δ^2-PGE1 methyl ester]
- complete abortions (% of the patients) (patients): more than 90%

Compound: CN1C(=O)CN=C(c2ccccc2)c2cc(Cl)ccc21 [Diazepam, reference compound]
- Fraction (animals fallen before 300 sec/total number of animals) (Swiss male mice): 8/10

Compound: CCCCC[C@H](O)/C=C/[C@H]1C(=O)C[C@H](O)[C@@H]1C/C=C\CCCC(=O)O [PGD2]
- concentration that inhibits platelets aggregation "in vitro" (platelets): 0.1 µM

Compound: CCCCC[C@H](O)/C=C/[C@H]1[C@H](O)CC(=O)[C@@H]1CCCCCCC(=O)O [PGE1]
- concentration that inhibits platelets aggregation "in vitro" (platelets): 0.1 µM
